Patent US8367316B2, “Human gastrointestinal stem cell-derived primary intestinal epithelial cell system and methods of use thereof” (AlfaGene Bioscience, Inc., priority 2009, dated 2013)

Key:
Type in all cases: cell-based, human
HIPEC monolayers = experiment: Inulin permeability of HIPEC monolayers grown on TransWell filters, with or without pro-inflammatory cytokines; settings: cytokine treatment 24 hrs, 3H-labeled Inulin, +/- standard error
Method: Intestinal stem cell derived primary epithelial cell mono layers were tested for Inulin permeability.
Confluent monolayers of HIPEC cells were grown on transwell membranes in triplicates. Cells were then treated with or without pro-inflammatory cytokines for 24 hrs. ^3H-labeled Inulin was added to the upper chamber. Aliquots of medium retrieved from the upper and lower chambers were counted.
The % amount of inulin activity transported from the upper to the lower chamber was determined. The results are shown in Table 5 below, along with the standard error.

[1] = system: hGISC derived primary ECs; experiment: Nitric oxide production after immunostimulation, Griess reaction assay; settings: agent alone; LPS (1 μm/ml), IFN-γ (200 u/ml); 24 hours; culture supernatants
From the text: (§1) Therefore, to gain insight about NO production regulation by intestinal EC, the effects of innate (LPS) and adaptive (IFN-γ) immunostimulatory agents on embodiments of the hGISC cell system derived non-transformed primary epithelial cells (EC) were studied and compared to a colonic adenocarcinoma EC line HT29.
[…] Cell free culture supernatants were collected and analyzed for NO content using a Griess Reaction kit (e.g., Griess Reagent System, Part #TB229) (PROMEGA, Madison, Wis.) in accordance with the manufacturer's instructions.
(§2) In another assay for NO, a macrophage cell line MHS served as a positive control. Cells were cultured with/without LPS (1 μm/ml), IFN-γ (200 u/ml), or in combination for 24 hours. Culture supernatants were analyzed for NO content by Griess reaction assay (as mentioned herein).

HT29 cells = experiment: as above; settings: agent alone; LPS (1 μm/ml), IFN-γ (200 u/ml); 24 hours; culture supernatants
Method: as §1, §2

HIPEC line (A2J1) = experiment: Response to inflammatory mediators, IL-8 read-out; settings: stimulators at various concentrations
Method: Using both IL-8 and MIP-3α read-out procedures, an HIPEC line of the present invention (A2J1) was tested for response to various inflammatory mediators (stimulators). The HIPEC line was compared to a Caco-2 cell line. The following stimulators were used at various concentrations: IL-1β; TNFα; IFNγ; Pam3CSK4 (TLR2); LPS (TLR4); and Flagellin (TLR5).

HIPEC line A2J1 = experiment: qPCR of markers for mature phenotype cells in HIPEC line upon cytokine stimulation; settings: 1 ng/ml IL-1b or 25 ng/ml TNFα (24 hrs)
Method: Using qPCR, the HIPEC line was also tested for various markers for mature phenotype cells, including the following cell subtypes: enteroendocrine; Goblet; Paneth; and enterocyte. The following markers were used, with the corresponding cell subtypes in parentheses: Somatostatin (enteroendocrine); Glucagon (enteroendocrine); Lysozyme (Goblet/Paneth); Defensin 5 (Goblet/Paneth); Trefoil factor 3 (Goblet/Paneth); Mucin 2 (Goblet/Paneth); Sucrose isomaltase (enterocyte); Carbonic anhydrase (enterocyte); Cd×2 promoter (enterocyte); and Guanylate cyclase c (enterocyte). Data from these tests supported a Goblet/secretory differentiation profile for the HIPEC line identified as A2J1 (derived from jejunem tissue).

TLR2 = experiment: Regulation of TLR expression by LPS on hGISC-derived primary epithelial cell line (FIG. 18); settings: LPS stimulation of HIPEC line, preliminary experiment
TLR4 = experiment: as above; settings: LPS stimulation of HIPEC line, preliminary experiment
TLR6 = experiment: as above; settings: LPS stimulation of HIPEC line, preliminary experiment
[2] = Experiment #1, Medium Only 35.5% +/− 5.3
[3] = Experiment #2, Medium Only 41.6% +/− 0.96
[4] = Experiment #3, Medium Only 43.6% +/− 1.16

| Molecule | % amount of inulin activity transported from the upper to the lower chamber (HIPEC monolayers; [2]) | % amount of inulin activity transported from the upper to the lower chamber (HIPEC monolayers; [3]) | % amount of inulin activity transported from the upper to the lower chamber (HIPEC monolayers; [4]) | NO production [1] | NO production (HT29 cells) | IL-8 response (HIPEC line (A2J1)) | change in phenotype upon stimulation (HIPEC line A2J1) | TLR2 expression (TLR2) | TLR4 expression (TLR4) | TLR6 expression (TLR6) |
| --- | --- | --- | --- | --- | --- | --- | --- | --- | --- | --- |
| IFN-γ: interferon; adaptive immunostimulatory agent | 36.0% +/− 2.8 | 42.6% +/− 2.07 | 42.7% +/− 0.30 | neither LPS nor IFN-γ alone affect NO production | neither LPS nor IFN-γ alone affect NO production | responsive |  |  |  |  |
| IL-1β: pro-inflammatory cytokine; interleukin | 43.5% +/− 1.36 | 50.4% +/− 0.94 | 54.0% +/− 1.59 |  |  | responsive | no change in phenotype |  |  |  |
| IL-6: pro-inflammatory cytokine | 36.5% +/− 0.48 | 41.8% +/− 0.59 |  |  |  |  |  |  |  |  |
| lipopolysaccharide [LPS] |  |  |  | neither LPS nor IFN-γ alone affect NO production | neither LPS nor IFN-γ alone affect NO production |  |  | upregulated | upregulated | upregulated |
| tumor necrosis factor alpha [TNF-α] | 41.2% +/− 0.66 | 46.6% +/− 1.05 | 49.0% +/− 1.95 |  |  | responsive | no change in phenotype |  |  |  |
| IL-1α: pro-inflammatory cytokine (protein, UniProt P01583 113-271, looked up) Interleukin-1 alpha: SAPFSFLSNVKYNFMRIIKYEFILNDALNQSIIRANDQYLTAAALHNLDEAVKFDMGAYKSSKDDAKITVILRISKTQLYVTAQDEDQPVLLKEMPEIPKTITGSETNLLFFWETHGTKNYFTSVAHPNLFIATKQDYWVCLAGGPPSITDFQILENQA | 40.0% +/− 3.6 | 47.4% +/− 0.59 | 50.7% +/− 0.40 |  |  |  |  |  |  |  |
